Biological target: murine double minute 2 (MDM2) (Homo sapiens, UniProt Q00987)
Assay: biochemical
Type: binding

Sequence of murine double minute 2 (MDM2) (Q00987 3-155): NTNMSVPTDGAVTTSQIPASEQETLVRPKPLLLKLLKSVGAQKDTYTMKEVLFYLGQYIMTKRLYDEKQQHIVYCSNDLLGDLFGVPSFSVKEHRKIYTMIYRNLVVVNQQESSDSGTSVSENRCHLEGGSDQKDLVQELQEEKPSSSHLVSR

Compound	IC50 [µM]
CN1CCCC(n2nc(Cc3ccc(Cl)cc3)c3ccccc3c2=O)CC1 (centres unmarked) [azelastine]	0.367
CC(C)COCC(CN(Cc1ccccc1)c1ccccc1)N1CCCC1 (centres unmarked) [bepridil]	0.206

Source: paper PMC6942878 (Analytical biochemistry, 2019)
